Series [1] has as its system cortical neurons. As to the kind of experiment: Polarization of somal lipid raft microdomains (CTx-B staining) in cultured cortical neurons. It is filed as cell-based, mouse. The following applies: for percentage of neurons with polarized raft microdomains: cholesterol-depleted vs control neurons; for inhibition of lipid raft polarization: FIG. 3, 25 μM A-beta 25-35 peptide and 300 μM NMDA; for inhibition of lipid raft / microdomain polarization: treatment of cortical cultures, neurotoxic insult not specified.

The test system of series [2] is cortical neurons. As to the kind of experiment: Neuronal death by LDH release assay (and chromatin fragmentation, FIG. 3) after neurotoxic exposure. The series is classed as cell-based, mouse. The following applies: for effect of co-treatment on neuroprotection by statins: co-treatment with HMG-CoA reductase inhibitor. (LDH in the medium is a marker of cell lysis.)
Series [3] deals with cortical neurons. Nature of the series: Chromatin integrity (DAPI): nuclei with condensed and fragmented chromatin. The series is classed as cell-based, mouse. The note with it: cholesterol-depleted vs control neurons.
For series [4] the following is noted: active form of mevastatin; cited from earlier work.
[5] abbreviates: three hours following 20 μM Aβ 25-35.

With methyl-β-cyclodextrin [βCD], in series [1] (15 min exposure to 25 μM A-beta 25-35 peptide, 1 hr pre-treatment), the “inhibition of raft polarization” value was “inhibition of raft polarization”. Moreover, the “percentage of neurons with polarized raft microdomains” value in series [1] (1 h following 300 μM NMDA) and in series [1] (setting [5]) was “significantly lower” in each case. In series [1], the “inhibition of lipid raft polarization” value was “inhibit lipid raft polarization”. For the same molecule, the “inhibition of lipid raft / microdomain polarization” value in series [1] is on record as “inhibits lipid raft polarization”. Further, the “protection against neurotoxic exposure (LDH release assay and chromatin fragmentation)” value in series [2] (25 μM A-beta 25-35 peptide) and in series [2] (300 μM NMDA) was “protect against neurotoxic exposure” each time. In series [2] (treatment of cortical cultures, insult not specified), the “protection against neuronal death / neurotoxic insults” value is recorded as “protects against neuronal death”. The “percentage of neurons with condensed and fragmented chromatin” value in series [3] (24 h following 300 μM NMDA) and in series [3] (48 h following 20 μM Aβ 25-35) was “significantly lower” each time.
Take “A-beta 25-35 peptide: beta-amyloid peptide fragment 25-35, neurotoxic stimulus (GSNKGAIIGLM; Amyloid-beta protein 42; UniProt P05067 696-706, looked up, fragment)”: the “induction of raft microdomain polarization to a pole of the neuronal cell body” value in series [1] (neurotoxic stimulus, FIG. 1B) is “aggregation and polarization of raft microdomains”.
Regarding latrunculins, the “inhibition of lipid raft / microdomain polarization” value in series [1] is reported as “prevents the polarization of lipid microdomains”.
Turning to `CC[C@H](C)C(=O)O[C@H]1CCC=C2C=C[C@H](C)[C@H](CC[C@@H]3C[C@@H](O)CC(=O)O3)[C@H]21` [mevastatin], the “percentage of neurons with polarized raft microdomains” value in series [1] (1 h following 300 μM NMDA) and in series [1] (setting [5]) was “significantly lower” each time. For the same molecule, the “inhibition of lipid raft polarization” value in series [1] is “inhibit lipid raft polarization”. The “protection against neurotoxic exposure (LDH release assay and chromatin fragmentation)” value in series [2] (25 μM A-beta 25-35 peptide) and in series [2] (300 μM NMDA) was “protect against neurotoxic exposure” each time. Moreover, the “percentage of neurons with condensed and fragmented chromatin” value in series [3] (24 h following 300 μM NMDA) and in series [3] (48 h following 20 μM Aβ 25-35) was “significantly lower” throughout. In addition, in series [4], the “lipophilicity relative to simvastatin (times less lipophilic)” value is listed as “approximately 8 times”.
In the case of `CC(O)(CCO)CC(=O)O` (stereo not shown) [mevalonate], in series [2], the “effect of co-treatment on neuroprotection by statins” value is on record as “substantially attenuated”.
Take `CC(C)CCC[C@@H](C)[C@H]1CC[C@H]2[C@@H]3CC=C4C[C@@H](O)CC[C@]4(C)[C@H]3CC[C@]12C` [cholesterol]: in series [2] (5 μM cholesterol co-incubated with mevastatin, or 2 mM cholesterol complexed with 2.5% βCD for 15 min after 1% βCD, 20 μM Aβ 25-35 or NMDA), the “effect on cholesterol depletion induced resistance to neuronal death (LDH release)” value is “prevented”. In addition, the “effect of co-treatment on neuroprotection by statins” value in series [2] is recorded as “substantially attenuated”.
In the case of `C=C1[C@@H](C)[C@H]2[C@H](Cc3ccccc3)NC(=O)[C@]23[C@H](OC(C)=O)/C=C/[C@@](C)(O)C(=O)[C@@H](C)C/C=C/[C@H]3[C@@H]1O` [cytochalasin D], the “inhibition of lipid raft / microdomain polarization” value in series [1] is “prevents the polarization of lipid microdomains”.
Same read-out and setting: the same measure for `C[N+](C)(C)CC(O)CC(=O)[O-]` (stereo not shown) [carnitine]: “inhibit raft polarization”.

(Values after patent US10881694B2, “In vitro model for neuronal death” (priority 2003, dated 2021).)
